Patent publication US20110306606A1, “NOVEL 2,6-SUBSTITUTED-3-NITROPYRIDINE DERIVATIVE, METHOD FOR PREPARING SAME, AND PHARMACEUTICAL COMPOSITION INCLUDING SAME” (priority 2008, published 2011)

Tests used:
[1] = tested on: formation of osteoclasts in co-culture of bone marrow cells and osteoblasts; assay: Osteoclastogenesis inhibition via co-culture system (TRAP staining); format: cell-based, mice; conditions: 1 μM compound, 7 days co-culture, TRAP-positive multinucleated osteoclasts vs vehicle control
Protocol: Osteoclastogenesis inhibitory effects of the compounds of the present invention were evaluated via a co-culture system (Reference: Endocrinology 137(1996), 2187 to 2190, E. Jimi et al.). A specific experimental method is as follows.
1) Preparation of Bone Marrow Cells and Osteoblasts
Femora and tibia were aseptically dissected from 6 to 8-week-old male ddY mice to harvest bone marrow cells by a conventional method using a syringe. In brief, tissues were removed from the dissected bone, the bone ends were cut off with scissors, and the bone marrow was isolated by pushing a medium-containing syringe (23G) against the one end of the cut bone. The isolated bone marrow was subjected to repeated piston movement of a syringe such that single cells were obtained (Reference: Endocrinology 123(1988), 2600 to 2602, Takahashi et al.). After removal of red blood cells within the bone marrow, the bone marrow cells recovered by centrifugation were placed in an α-MEM supplemented with 10% fetal bovine serum (FBS), followed by counting of nucleated cells and then were immediately used for a co-culture system.
2) Osteoclastogenesis Inhibition Experiment Via Co-Culture System
As the medium used for a co-culture system, a differentiation medium with the addition of differentiation factors 1α,25-dihydroxyvitamin D3 (10^−8M) and dexamethasone (10^−8M) to a-MEM supplemented with 10% FBS was used for the induction of osteoclastogenesis. First, the compounds dissolved in dimethyl sulfoxide (DMSO) at a concentration of 1 mM were diluted to 2 μM using the above-mentioned differentiation medium. As a vehicle control group, 0.2% (v/v) DMSO was added to the medium. 100 μL/well of each medium was added to 96-well plates. In addition, the above prepared bone marrow cells and osteoblasts were plated onto 96-well plates at a density of 1×10^5 cells/50 μL/well and 3×10^3 cells/50 μL/well, respectively. The total volume/well was 200 μL and the final compound concentration was 1 μM. The control group was 0.1% DMSO. The cells were cultured with exchange of the culture media with fresh media containing differentiation factors and test materials at an interval of 2 to 3 days.
7 days after culturing of cells, the formation of multinucleated osteoclasts was confirmed by microscopic examination, the medium was removed from the wells and then the cells were fixed in a 10% phosphate-buffered formalin solution. The degree of formation of mature osteoclasts was measured taking advantage of the characteristics of osteoclasts showing a positive reaction to a tartrate-resistant acid phosphatase (TRAP) staining solution. The TRAP staining solution was prepared in a manner such that naphthol AS-MS phosphate as a substrate and a coloring agent (Fast Red Violet LB salt) were dissolved in N,N-dimethylformamide, and a 0.1N NaHCO3 buffer solution containing 50 mM of tartaric acid was added thereto. Among the TRAP-positive cells under a light microscope, multinucleated osteoclasts having 6 to 7 nuclei were regarded as mature osteoclasts.
The degree of inhibition of osteoclastogenesis was calculated according to the following equation 1. The results are summarized in Table 27 below (Experiments were carried out for 4 wells/experimental group (n=4), and the results are given in terms of mean±standard deviation)
Inhibition of osteoclastogenesis(%)=(1−numbers of osteoclasts observed in experimental group/numbers of osteoclasts observed in vehicle control group)×100(%) [Equation 1]

[2] = tested on: Osteoblasts (Calvarial cells); assay: Cytotoxicity test (MTT); conditions: 1 μM compound, 72 hours, in comparison with vehicle control

With O=[N+]([O-])c1ccc(NCc2cccnc2)nc1Nc1ccc(N2CCSCC2)c(F)c1 [Compound 209, 2-[(3-fluoro-4-thiomorpholino)phenylamino]-6-[(3-pyridyl)methylamino]-3-nitropyridine] the “Osteoclastogenesis inhibition (%) 1 μM” value [1] was 85% and the “Cell viability (%) Calvarial cell” value [2] was 99%.
For O=[N+]([O-])c1ccc(NCc2ccncc2)nc1Nc1ccc(N2CCSCC2)c(F)c1 [Compound 210, 2-[(3-fluoro-4-thiomorpholino)phenylamino]-6-[(4-pyridyl)methylamino]-3-nitropyridine], the “Osteoclastogenesis inhibition (%) 1 μM” value [1] was 70% and the “Cell viability (%) Calvarial cell” value [2] was 105%.
For CN1CCN(c2ccc([N+](=O)[O-])c(Nc3ccc(N4CCSCC4)c(F)c3)n2)CC1 [Compound 212, 2-[(3-fluoro-4-thiomorpholino)phenylamino]-6-(4-methylpiperazin-1-yl)-3-nitropyridine], the “Osteoclastogenesis inhibition (%) 1 μM” value [1] was 85% and the “Cell viability (%) Calvarial cell” value [2] was 100%.
In the case of NC1CCN(c2ccc([N+](=O)[O-])c(Nc3ccc(N4CCSCC4)c(F)c3)n2)CC1 [Compound 214, 2-[(3-fluoro-4-thiomorpholino)phenylamino]-6-(4-aminopiperidino)-3-nitropyridine], the “Osteoclastogenesis inhibition (%) 1 μM” value [1] is reported as 98% and the “Cell viability (%) Calvarial cell” value [2] is reported as 103%.
In the case of O=[N+]([O-])c1ccc(NCc2cccnc2)nc1Nc1ccc(N2CCNCC2)c(F)c1 [Compound 220, 2-[(3-fluoro-4-piperazino)phenylamino]-6-[(3-pyridyl)methylamino]-3-nitropyridine], the “Osteoclastogenesis inhibition (%) 1 μM” value [1] is reported as 82% and the “Cell viability (%) Calvarial cell” value [2] is reported as 93%.
In the case of O=[N+]([O-])c1ccc(NCc2ccncc2)nc1Nc1ccc(N2CCNCC2)c(F)c1 [Compound 221, 2-[(3-fluoro-4-piperazino)phenylamino]-6-[(4-pyridyl)methylamino]-3-nitropyridine], the “Osteoclastogenesis inhibition (%) 1 μM” value [1] is reported as 89% and the “Cell viability (%) Calvarial cell” value [2] is reported as 91%.
O=[N+]([O-])c1ccc(N2CCC(O)CC2)nc1Nc1ccc(N2CCCCC2)c(F)c1 [Compound 226, 2-[(3-fluoro-4-piperidino)phenylamino]-6-(4-hydroxypiperidino)-3-nitropyridine] was tested, and the “Osteoclastogenesis inhibition (%) 1 μM” value [1] was 66% and the “Cell viability (%) Calvarial cell” value [2] was 104%.
CC(C)c1nccn1-c1ccc([N+](=O)[O-])c(Nc2ccc(N3CCCCC3)c(F)c2)n1 [Compound 228, 2-[(3-fluoro-4-piperidino)phenylamino]-6-[(2-isopropyl)imidazol-1-yl]-3-nitropyridine] was tested, and the “Osteoclastogenesis inhibition (%) 1 μM” value [1] was 73% and the “Cell viability (%) Calvarial cell” value [2] was 99%.
In the case of CN1CCN(c2ccc([N+](=O)[O-])c(Nc3ccc(N4CCCCC4)c(F)c3)n2)CC1 [Compound 232, 2-[(3-fluoro-4-piperidino)phenylamino]-6-(4-methylpiperazin-1-yl)-3-nitropyridine], the “Osteoclastogenesis inhibition (%) 1 μM” value [1] is reported as 86% and the “Cell viability (%) Calvarial cell” value [2] is reported as 100%.
In the case of O=[N+]([O-])c1ccc(N2CCNCC2)nc1Nc1ccc(N2CCCCC2)c(F)c1 [Compound 233, 2-[(3-fluoro-4-piperidino)phenylamino]-6-(piperazin-1-yl)-3-nitropyridine], the “Osteoclastogenesis inhibition (%) 1 μM” value [1] is reported as 96% and the “Cell viability (%) Calvarial cell” value [2] is reported as 102%.
For NC1CCN(c2ccc([N+](=O)[O-])c(Nc3ccc(N4CCCCC4)c(F)c3)n2)CC1 [Compound 234, 2-[(3-fluoro-4-piperidino)phenylamino]-6-(4-aminopiperidino)-3-nitropyridine], the “Osteoclastogenesis inhibition (%) 1 μM” value [1] was 100% and the “Cell viability (%) Calvarial cell” value [2] was 94%.
With CC(C)CNc1ccc([N+](=O)[O-])c(Nc2ccc(N3CCC(O)CC3)c(F)c2)n1 [Compound 238, 2-{[3-fluoro-4-(4-hydroxypiperidino)]phenylamino}-6-(isobutylamino)-3-nitropyridine] the “Osteoclastogenesis inhibition (%) 1 μM” value [1] was 75% and the “Cell viability (%) Calvarial cell” value [2] was 106%.
With O=[N+]([O-])c1ccc(NCc2cccnc2)nc1Nc1ccc(N2CCC(O)CC2)c(F)c1 [Compound 241, 2-{[3-fluoro-4-(4-hydroxypiperidino)]phenylamino}-6-[(3-pyridyl)methylamino]-3-nitropyridine] the “Osteoclastogenesis inhibition (%) 1 μM” value [1] was 87% and the “Cell viability (%) Calvarial cell” value [2] was 100%.
